Data from publication PMC10620186, “Recognition and reprogramming of E3 ubiquitin ligase surfaces by α-helical peptides” (Nature Communications, 2023).

Columns and labels:
[1] = biological target: CHIP-TEAD4 ternary complex (Homo sapiens, UniProt Q15561+Q9UNE7); conditions: SPR ABA, Rmax compared with expected response
[2] = biological target: CHIP-PPIA ternary complex (Homo sapiens, UniProt P62937+Q9UNE7); conditions: SPR ABA, immobilized PPIA, 10 μM Helicon
VHL-ELOBC = VHL-ELOBC (Homo sapiens, UniProt P40337+Q15369+Q15370); conditions: competition FP, 15 nM VHL-ELOBC, 5 nM HXC78, 1 h room temperature, n = 2

| SMILES | ternary complex formation with CHIP and PPIA, of the expected response [2] [%] | also measured |
| --- | --- | --- |
| CC(=O)N1CCC[C@H]1C(=O)N[C@H](C(=O)N1CCC[C@H]1C(=O)N[C@@H](Cc1ccccc1)C(=O)N[C@@H](Cc1ccccc1)C(=O)N[C@@H](Cc1c[nH]c2ccccc12)C(=O)N[C@@H](CCC(=O)O)C(=O)N[C@H]1CSCC(=O)Nc2ccc(cc2)NC(=O)CSC[C@@H](C(=O)N[C@H](C(=O)N[C@@H](C)C(=O)N2CCC[C@H]2C(=O)N[C@@H](CCCNC(=N)N)C(=O)N[C@H](C(=O)N[C@@H](CCC(N)=O)C(N)=O)C(C)C)[C@@H](C)O)NC(=O)[C@H]([C@@H](C)O)NC(=O)[C@H](C)NC(=O)[C@H](C)NC(=O)[C@H](C)NC(=O)[C@H](Cc2ccccc2)NC(=O)[C@H](CCC(N)=O)NC1=O)[C@@H](C)O [Helicon H323] |  | amount of ternary complex formed, CHIP and TEAD4 [1]: 65% |
| CC(=O)N1CCC[C@H]1C(=O)N[C@@H](C)C(=O)N[C@@H](CCC(N)=O)C(=O)N[C@@H](CC(=O)O)C(=O)N[C@@H](CC(=O)O)C(=O)N[C@@H](Cc1c[nH]c2ccccc12)C(=O)N[C@@H](CO)C(=O)N[C@H]1CSCC(=O)Nc2ccc(cc2)NC(=O)CSC[C@@H](C(=O)N[C@@H](CCC(=O)O)C(=O)N[C@@H](CC(N)=O)C(=O)N[C@@H](Cc2ccc(O)cc2)C(=O)N[C@H](C(=O)N[C@@H](CCCNC(=N)N)C(=O)N[C@H](C(N)=O)C(C)C)C(C)C)NC(=O)[C@H](CC(C)C)NC(=O)[C@H](Cc2ccc(O)cc2)NC(=O)[C@H](C)NC(=O)[C@H](C)NC(=O)[C@H](CCC(=O)O)NC(=O)[C@H](C(C)C)NC1=O [Helicon H326] | 3 |  |
| CC[C@H](C)[C@H](NC(=O)[C@@H](NC(=O)CNC(=O)[C@H](CC(=O)O)NC(=O)[C@@H](NC(=O)[C@H](Cc1c[nH]c2ccccc12)NC(=O)[C@@H]1CSCC(=O)Nc2ccc(cc2)NC(=O)CSC[C@H](NC(=O)[C@H](CCSC)NC(=O)[C@@H]2CCCN2C(=O)[C@H](C)NC(=O)[C@H](CC(C)C)NC(=O)[C@H](CCSC)NC(=O)[C@H](CC(=O)O)NC(=O)[C@@H]2CCCN2C(C)=O)C(=O)NCC(=O)N2CCC[C@H]2C(=O)N[C@@H](C)C(=O)N[C@@H](C)C(=O)N[C@@H](CO)C(=O)N[C@@H]([C@@H](C)CC)C(=O)N1)[C@@H](C)CC)C(C)C)C(N)=O [Helicon H328] | 11 |  |
| Cc1ncsc1-c1ccc(CNC(=O)[C@@H]2C[C@@H](O)CN2C(=O)[C@@H](NC(=O)C2(C#N)CC2)C(C)(C)C)cc1 [VH298, (2S,4R)−1-((S)−2-(1-Cyanocyclopropanecarboxamido)−3,3-dimethylbutanoyl)−4-hydroxy-N-(4-(4-methylthiazol-5-yl)benzyl)pyrrolidine-2-carboxamide] |  | competition with HXC78 for binding VHL-ELOBC (VHL-ELOBC): potently competes |
